This note sets out measurements from patent US11786555B2, “RAR selective agonists in combination with immune modulators for cancer immunotherapy” (IO THERAPEUTICS, INC., priority 2017, dated 2023).

Assay [1] concerns CD4+ T cells. Kind of assay: in vivo T cell differentiation in mice (blood and spleen). Also noted: species or system mouse. The settings on record: 100 μg every other day for 10 days. Here is the method: To expand on the finding above, the in vivo effects of a RARα agonist on T cell differentiation was evaluated in a mouse model. Mice were treated with 100 μg of compound IRX5183 or an equivalent volume of DMSO (vehicle control) every other day for 10 days. Lymphocytes from the blood and spleen were then isolated and FoxP3 expression in CD4^+ T cells was assessed.

Assay [2] addresses T1, RARγ (Homo sapiens, UniProt P13631).
T1 sequence (P13631 1-454): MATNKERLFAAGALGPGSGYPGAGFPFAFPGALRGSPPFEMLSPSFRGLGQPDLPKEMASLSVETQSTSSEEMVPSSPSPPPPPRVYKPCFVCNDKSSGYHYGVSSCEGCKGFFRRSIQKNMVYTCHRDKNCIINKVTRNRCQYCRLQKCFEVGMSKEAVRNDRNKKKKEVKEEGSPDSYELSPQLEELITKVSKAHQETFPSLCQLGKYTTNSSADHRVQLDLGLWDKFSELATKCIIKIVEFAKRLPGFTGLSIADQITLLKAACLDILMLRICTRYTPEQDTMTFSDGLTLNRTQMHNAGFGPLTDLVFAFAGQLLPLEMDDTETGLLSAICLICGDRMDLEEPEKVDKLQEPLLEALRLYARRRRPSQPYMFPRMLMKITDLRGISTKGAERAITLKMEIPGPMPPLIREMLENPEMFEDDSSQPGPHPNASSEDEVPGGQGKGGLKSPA
Nature of the assay: displacement assay, agonist binding affinity. The settings on record: read-out: Binding Affinities for RARγ. The method, then: (§1) Binding assays are performed using a classic competition assay format in which cloned receptor RAR molecules are first loaded with radiolabeled all-trans-retinoic acid […] and then the amount of radioactivity liberated with increasing concentration of test compound is measured.

Assay [3] deals with T2, RARβ (Homo sapiens, UniProt P10826).
T2 construct: cloned receptor RAR molecules are first loaded with radiolabeled all-trans-retinoic acid
T2 sequence (P10826 1-455): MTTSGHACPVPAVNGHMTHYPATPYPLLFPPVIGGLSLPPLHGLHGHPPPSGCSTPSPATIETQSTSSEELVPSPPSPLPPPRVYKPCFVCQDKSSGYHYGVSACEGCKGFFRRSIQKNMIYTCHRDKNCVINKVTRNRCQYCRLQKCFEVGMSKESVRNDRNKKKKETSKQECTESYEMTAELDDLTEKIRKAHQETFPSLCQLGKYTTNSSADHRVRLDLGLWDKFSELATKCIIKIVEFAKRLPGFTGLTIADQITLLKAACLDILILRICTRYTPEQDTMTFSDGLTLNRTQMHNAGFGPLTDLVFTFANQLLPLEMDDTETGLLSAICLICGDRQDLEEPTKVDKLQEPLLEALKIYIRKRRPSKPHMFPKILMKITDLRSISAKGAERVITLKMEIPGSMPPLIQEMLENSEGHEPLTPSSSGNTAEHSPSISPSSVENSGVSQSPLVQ
Nature of the assay: displacement assay, agonist binding affinity. Particulars: read-out: Binding Affinities for RARβ. The method, then:
as §1

In assay [4] the test system is H929 cells and primary CD138+ MM cells. Nature of the assay: clonogenic or cellular recovery of MM cells after BTZ treatment. It counts as cell-based, human. Particulars: stroma co-culture, 1 μM for 5 days, then BTZ 2.5 nM. Here is the method: FIG. 4A-B depicts the clonogenic recovery (CFU) of H929 cells (FIG. 4A) or cellular recovery of primary CD138+ MM cells from 3 different patient samples (FIG. 4B). MM cells were treated with bortezomib (BTZ; 2.5 nM) for 48 hours after being incubated for 5 days either in the absence of stroma (Liquid), with or without the pan-RAR inhibitor AGN (1 μM), or in the presence of BM mesenchymal cells (Stroma), with or without the CYP26 inhibitor R115 (1 μM) or the CYP26-resistant retinoid IRX (1 μM). Clonogenic or cellular recovery was normalized to each condition in the absence of BTZ.
Coculture experiments. 24-well plates were coated with 0.1% gelatin in PBS for 30 min at 37° C. The gelatin solution was removed, and the stromal cells were cultured overnight at a density of 5×10^4 cells/well to obtain a confluent monolayer. At that time, MM cell lines or primary MM cells (1×10^5 in 2 ml) were added to the stroma cultures. The stroma cocultures were incubated at 37° C. in RPMI containing 10% FCS, L-glutamine, and P/S, with or without AGN194310 (1 μM for 5 days), R115866 (1 μM for 5 days), IRX5183 (1 μM for 5 days), or BTZ (2.5 nM for 48 hr).
Clonogenic assays. After treatment, MM cells were collected, washed with PBS, and plated at a density of 5,000 cells/ml in 1 ml of 1.32% methylcellulose supplemented with 30% FBS, 10% BSA, L-glutamine, P/S, and 0.1 mM β-ME. Cells were plated in triplicate in 35-mm culture dishes, incubated at 37° C., and scored for the presence of colonies 14 days later.
A RA-low microenvironment induces BTZ resistance. To determine whether decreased retinoid signaling contributes to BTZ resistance within the BM niche, MM cell lines and MM CD138+ primary cells were incubated with BM stroma for 5 days, followed by BTZ treatment.

Assay [5] concerns H929 Luc+ cells. Nature of the assay: systemic MM xenograft, bioluminescence. It counts as in vivo, mouse. Particulars: 4 weeks. The method, then: FIG. 6 depicts bioluminescent images of systemic MM xenografts. Following engraftment of H929 Luc+ cells, mice were treated with IRX (n=4), BTZ (n=5), or a combination of both (n=5) for 4 weeks. Data represent the mean±SEM of the fold change in bioluminescence (photons/second) from day 0.
For the systemic MM model, 2×10^6 Luc+/GFP+ H929 cells were injected via the tail vein into 16-week-old male NSG mice. After engraftment, as determined by an exponential increase in bioluminescence, mice were treated with BTZ (0.5 mg/kg i.p.) twice weekly and with IRX (10 mg/kg) once daily. Tumor burden was assessed by bioluminescence, as above.
To test whether retinoids can enhance BTZ activity in MM, a systemic MM xenograft was developed by injecting 2×10^6 H929 luciferase+ (Luc+) cells via the tail vein of non-obese, diabetic, severe combined immunodeficiency IL-2 receptor y-KO (NSG) mice. The animals were randomized to receive IRX, BTZ, or a combination of both, and disease burden was followed weekly by bioluminescence imaging (FIG. 6).

Assay [6] concerns OCI-AML3 cells. Nature of the assay: CFU experiments, off and on stroma. It counts as cell-based. The settings on record: 10^−6 M ATRA, IRX5183, or 10^−7 M AM80. From the text:
(§2) Data across three independent experiments.

Assay [7] has as its system Kasumi-1 cells. Kind of assay: CFU experiments, off and on stroma. Format: cell-based. Particulars: 10^−6 M ATRA, IRX5183, or 10^−7 M AM80.
Excerpt: as §2

For assay [8], the system named is NB4 cells. Kind of assay: CFU experiments, off and on stroma. Format: cell-based. Particulars: 10^−7 M ATRA, IRX5183, or 10^−8 M AM80.
Excerpt: as §2

The structures appear in SMILES notation.

In the case of `CC1(C)CCC(C)(C)c2c1cc(C(=O)Nc1cc(F)c(C(=O)O)c(F)c1)c(O)c2Cl` [IRX5183], the “Foxp3+ Expression” value was 4.3% in assay [1] (Blood) and 25% in assay [1] (Spleen). The Kd in assay [2] and in assay [3] was greater than 10 µM throughout. In assay [4], the “effect on stroma-induced BTZ resistance” value is listed as “overcome”. The “disease burden (bioluminescence)” value in assay [5] (combination of IRX 10 mg/kg daily and BTZ 0.5 mg/kg twice weekly) is “significant (P<0.01) decrease in disease burden”. Besides, in assay [5] (monotherapy, BTZ 0.5 mg/kg i.p. twice weekly, IRX 10 mg/kg once daily), the “tumor burden (bioluminescence)” value is “decrease in tumor burden compared with untreated mice”. In addition, the “clonogenic growth (CFU), differentiation and elimination of AML” value in assay [6], in assay [7] and in assay [8] was “decrease in clonogenic growth compared to control” each time.
